For three compounds, IC50 and Ki results are on record in ChEMBL document CHEMBL1909046, “DrugMatrix in vitro pharmacology data”.

The first assay deals with Prostaglandin G/H synthase 1 (Homo sapiens, UniProt P23219). In words: biochemical. The format is tissue-based, Platelet. Particulars: platelet.
Chain of Prostaglandin G/H synthase 1 (P23219 whole entry): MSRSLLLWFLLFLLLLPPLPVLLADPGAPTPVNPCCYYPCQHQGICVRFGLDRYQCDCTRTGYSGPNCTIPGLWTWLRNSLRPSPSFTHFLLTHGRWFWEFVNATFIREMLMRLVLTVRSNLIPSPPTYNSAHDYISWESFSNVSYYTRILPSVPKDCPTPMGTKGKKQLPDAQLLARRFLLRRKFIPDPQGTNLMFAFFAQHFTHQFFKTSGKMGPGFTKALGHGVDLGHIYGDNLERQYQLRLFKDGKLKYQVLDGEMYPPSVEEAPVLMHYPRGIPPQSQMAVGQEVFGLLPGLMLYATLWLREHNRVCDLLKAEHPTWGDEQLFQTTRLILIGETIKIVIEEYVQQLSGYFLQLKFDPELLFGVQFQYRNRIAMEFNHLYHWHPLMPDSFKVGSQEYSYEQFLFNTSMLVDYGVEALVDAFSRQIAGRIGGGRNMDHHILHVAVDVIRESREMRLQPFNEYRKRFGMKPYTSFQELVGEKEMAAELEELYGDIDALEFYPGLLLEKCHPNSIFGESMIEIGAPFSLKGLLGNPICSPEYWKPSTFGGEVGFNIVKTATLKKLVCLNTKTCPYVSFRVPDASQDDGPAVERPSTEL
Turning to `NC(=O)c1ncn([C@@H]2O[C@H](CO)[C@@H](O)[C@H]2O)n1` [RIBAVIRIN], the IC50 entry is recorded as “Not Active”.
On the same count and under the same terms, then `Nc1nnc(-c2cccc(Cl)c2Cl)c(N)n1` [LAMOTRIGINE], with “Not Active”.
Still for that read-out and setting: then `NNC(=O)c1ccncc1` [ISONIAZID], with “Not Active”.

Tested on in a further assay: not listed separately
In words: DRUGMATRIX: Phosphodiesterase PDE4 enzyme inhibition (substrate: [3H]cAMP + cAMP). Particulars: u-937; Not Active = under 50% inhibition at 10 µM.
Consider `NC(=O)c1ncn([C@@H]2O[C@H](CO)[C@@H](O)[C@H]2O)n1` [RIBAVIRIN], for which the IC50 entry is on record as “Not Active” and the Ki result is recorded as “Not Active”.
On to `Nc1nnc(-c2cccc(Cl)c2Cl)c(N)n1` [LAMOTRIGINE], for which the IC50 entry is “Not Active” and the Ki result is “Not Active”.
Consider `NNC(=O)c1ccncc1` [ISONIAZID], for which the IC50 entry is “Not Active” and the Ki result is listed as “Not Active”.

The target of another assay is Beta-3 adrenergic receptor (Homo sapiens, UniProt P13945). In words: DRUGMATRIX: Adrenergic beta3 radioligand binding (ligand: [125I] Cyanopindolol). The format is cell membranes, HEK293, Membrane. The note with it: hek293; Not Active = under 50% inhibition at 10 µM.
Chain of Beta-3 adrenergic receptor (P13945 whole entry): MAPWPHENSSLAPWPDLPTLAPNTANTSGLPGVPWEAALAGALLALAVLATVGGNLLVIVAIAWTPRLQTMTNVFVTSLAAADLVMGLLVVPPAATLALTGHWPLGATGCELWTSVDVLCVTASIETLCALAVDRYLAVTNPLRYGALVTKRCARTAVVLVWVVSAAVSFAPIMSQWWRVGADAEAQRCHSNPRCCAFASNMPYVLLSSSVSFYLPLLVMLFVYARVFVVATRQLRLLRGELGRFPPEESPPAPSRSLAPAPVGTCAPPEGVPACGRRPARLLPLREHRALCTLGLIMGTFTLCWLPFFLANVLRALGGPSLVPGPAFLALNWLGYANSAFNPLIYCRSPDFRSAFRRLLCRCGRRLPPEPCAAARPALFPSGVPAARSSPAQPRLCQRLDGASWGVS
As for `NC(=O)c1ncn([C@@H]2O[C@H](CO)[C@@H](O)[C@H]2O)n1` [RIBAVIRIN], the IC50 result is listed as “Not Active”.
The same measure, in the same setting: then `Nc1nnc(-c2cccc(Cl)c2Cl)c(N)n1` [LAMOTRIGINE], with “Not Active”; and `NNC(=O)c1ccncc1` [ISONIAZID], with “Not Active”.

Another assay addresses Protein kinase C alpha type (Homo sapiens, UniProt P17252).
Assay: not given
The assay is classed as cell-based. Particulars: sf9.
With `NC(=O)c1ncn([C@@H]2O[C@H](CO)[C@@H](O)[C@H]2O)n1` [RIBAVIRIN], the IC50 entry is “Not Active”.
Same read-out and setting: then `Nc1nnc(-c2cccc(Cl)c2Cl)c(N)n1` [LAMOTRIGINE], with “Not Active”; and `NNC(=O)c1ccncc1` [ISONIAZID], with “Not Active”.

Tested on in another assay: not listed separately
In words: DRUGMATRIX: Sodium/nucleoside co-transporter radioligand binding (ligand: nitrobenzylthioinosine). The format is cell membranes, Cavia porcellus, Dunkin-Hartley, Cerebral cortex, Membrane. Particulars: Not Active = under 50% inhibition at 10 µM.
For the compound `NC(=O)c1ncn([C@@H]2O[C@H](CO)[C@@H](O)[C@H]2O)n1` [RIBAVIRIN], the IC50 entry is listed as “Not Active” and the Ki entry was “Not Active”.
Regarding `Nc1nnc(-c2cccc(Cl)c2Cl)c(N)n1` [LAMOTRIGINE], the IC50 result is listed as “Not Active” and the Ki entry is “Not Active”.
For the compound `NNC(=O)c1ccncc1` [ISONIAZID], the IC50 entry is given as “Not Active” and the Ki result is “Not Active”.

The next assay has as its target T1, D(4) dopamine receptor (Homo sapiens, UniProt P21917).
T1 sequence (P21917 whole entry): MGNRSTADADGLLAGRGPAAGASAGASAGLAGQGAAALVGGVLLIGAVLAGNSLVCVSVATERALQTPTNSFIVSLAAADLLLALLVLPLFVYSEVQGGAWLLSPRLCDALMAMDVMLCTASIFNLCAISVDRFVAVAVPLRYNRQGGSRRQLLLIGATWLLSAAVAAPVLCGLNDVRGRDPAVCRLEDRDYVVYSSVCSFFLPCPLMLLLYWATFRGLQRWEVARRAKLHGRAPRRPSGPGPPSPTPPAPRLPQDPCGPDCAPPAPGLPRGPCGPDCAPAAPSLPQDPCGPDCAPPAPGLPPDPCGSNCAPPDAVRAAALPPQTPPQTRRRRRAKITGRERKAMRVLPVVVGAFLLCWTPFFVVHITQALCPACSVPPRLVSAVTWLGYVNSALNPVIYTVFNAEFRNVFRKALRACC
In words: DRUGMATRIX: Dopamine D4.2 radioligand binding (ligand: [3H] Spiperone). The note with it: cho-k1; Not Active = under 50% inhibition at 10 µM. The assay is classed as cell membranes, CHO-K1, Membrane.
`NC(=O)c1ncn([C@@H]2O[C@H](CO)[C@@H](O)[C@H]2O)n1` [RIBAVIRIN]: the IC50 result is on record as “Not Active”.
On the same count and under the same terms, then `Nc1nnc(-c2cccc(Cl)c2Cl)c(N)n1` [LAMOTRIGINE], with “Not Active”; and `NNC(=O)c1ccncc1` [ISONIAZID], with “Not Active”.

A further assay deals with Glycine receptor (Rattus norvegicus, UniProt P22771+P24524+P07727+P20781).
Assay: not given
Conditions: not given
The assay is classed as cell membranes, Wistar, Spinal cord, Membrane.
On to `NC(=O)c1ncn([C@@H]2O[C@H](CO)[C@@H](O)[C@H]2O)n1` [RIBAVIRIN], for which the IC50 entry was “Not Active”.
Regarding `Nc1nnc(-c2cccc(Cl)c2Cl)c(N)n1` [LAMOTRIGINE], the IC50 entry is recorded as “Not Active”.
The same measure, in the same setting: then `NNC(=O)c1ccncc1` [ISONIAZID], with “Not Active”.

The next assay deals with T2, Alpha-1D adrenergic receptor (Homo sapiens, UniProt P25100).
T2 sequence (P25100 whole entry): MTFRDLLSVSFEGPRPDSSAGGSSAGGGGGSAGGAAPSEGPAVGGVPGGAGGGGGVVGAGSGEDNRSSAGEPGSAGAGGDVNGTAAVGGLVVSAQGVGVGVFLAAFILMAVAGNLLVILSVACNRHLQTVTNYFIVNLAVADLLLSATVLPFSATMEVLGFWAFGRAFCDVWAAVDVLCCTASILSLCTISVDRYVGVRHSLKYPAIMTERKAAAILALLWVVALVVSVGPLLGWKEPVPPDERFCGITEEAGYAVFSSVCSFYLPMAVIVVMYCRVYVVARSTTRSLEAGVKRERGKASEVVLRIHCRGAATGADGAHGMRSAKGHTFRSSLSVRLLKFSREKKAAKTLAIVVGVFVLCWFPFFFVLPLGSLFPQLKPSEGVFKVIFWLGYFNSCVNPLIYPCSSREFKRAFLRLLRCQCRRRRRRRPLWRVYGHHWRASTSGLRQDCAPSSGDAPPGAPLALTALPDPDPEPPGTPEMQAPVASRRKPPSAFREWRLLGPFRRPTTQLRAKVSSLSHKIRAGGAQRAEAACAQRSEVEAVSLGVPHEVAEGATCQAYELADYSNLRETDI
Assay: not given
The format is cell membranes, HEK293, Membrane. Particulars: hek293.
For `NC(=O)c1ncn([C@@H]2O[C@H](CO)[C@@H](O)[C@H]2O)n1` [RIBAVIRIN], the IC50 entry is “Not Active”.
Same read-out and setting: then `Nc1nnc(-c2cccc(Cl)c2Cl)c(N)n1` [LAMOTRIGINE], with “Not Active”.
The same measure, in the same setting: then `NNC(=O)c1ccncc1` [ISONIAZID], with “Not Active”.

The next assay concerns the target T3, Alpha-1A adrenergic receptor (Rattus norvegicus, UniProt P43140).
T3 sequence (P43140 whole entry): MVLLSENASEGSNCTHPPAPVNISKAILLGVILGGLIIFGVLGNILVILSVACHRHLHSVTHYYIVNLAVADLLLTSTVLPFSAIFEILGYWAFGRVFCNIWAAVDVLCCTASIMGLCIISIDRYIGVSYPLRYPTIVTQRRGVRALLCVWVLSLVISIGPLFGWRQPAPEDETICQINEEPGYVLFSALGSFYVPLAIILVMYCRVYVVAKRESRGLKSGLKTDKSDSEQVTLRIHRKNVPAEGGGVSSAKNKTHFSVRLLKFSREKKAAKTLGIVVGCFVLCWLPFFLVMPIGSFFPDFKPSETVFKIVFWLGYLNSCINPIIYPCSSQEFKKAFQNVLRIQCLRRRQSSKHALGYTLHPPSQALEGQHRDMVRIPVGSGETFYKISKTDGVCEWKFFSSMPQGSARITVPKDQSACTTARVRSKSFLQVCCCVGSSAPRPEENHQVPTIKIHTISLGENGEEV
In words: DRUGMATRIX: Alpha-1A adrenergic receptor radioligand binding (ligand: prazosin). The assay is classed as cell membranes, Wistar, Submaxillary gland, Membrane. Particulars: Not Active = under 50% inhibition at 10 µM.
For the compound `NC(=O)c1ncn([C@@H]2O[C@H](CO)[C@@H](O)[C@H]2O)n1` [RIBAVIRIN], the IC50 entry is listed as “Not Active”.
On the same count and under the same terms, then `Nc1nnc(-c2cccc(Cl)c2Cl)c(N)n1` [LAMOTRIGINE], with “Not Active”; and `NNC(=O)c1ccncc1` [ISONIAZID], with “Not Active”.

For another assay, the target named is Epidermal growth factor receptor (Homo sapiens, UniProt P00533). In words: DRUGMATRIX: Protein Tyrosine Kinase, EGF Receptor enzyme inhibition (substrate: Poly(Glu:Tyr)). The format is cell-based, Insect cells. The note with it: insect cells; Not Active = under 50% inhibition at 10 µM.
Chain of Epidermal growth factor receptor (P00533 whole entry): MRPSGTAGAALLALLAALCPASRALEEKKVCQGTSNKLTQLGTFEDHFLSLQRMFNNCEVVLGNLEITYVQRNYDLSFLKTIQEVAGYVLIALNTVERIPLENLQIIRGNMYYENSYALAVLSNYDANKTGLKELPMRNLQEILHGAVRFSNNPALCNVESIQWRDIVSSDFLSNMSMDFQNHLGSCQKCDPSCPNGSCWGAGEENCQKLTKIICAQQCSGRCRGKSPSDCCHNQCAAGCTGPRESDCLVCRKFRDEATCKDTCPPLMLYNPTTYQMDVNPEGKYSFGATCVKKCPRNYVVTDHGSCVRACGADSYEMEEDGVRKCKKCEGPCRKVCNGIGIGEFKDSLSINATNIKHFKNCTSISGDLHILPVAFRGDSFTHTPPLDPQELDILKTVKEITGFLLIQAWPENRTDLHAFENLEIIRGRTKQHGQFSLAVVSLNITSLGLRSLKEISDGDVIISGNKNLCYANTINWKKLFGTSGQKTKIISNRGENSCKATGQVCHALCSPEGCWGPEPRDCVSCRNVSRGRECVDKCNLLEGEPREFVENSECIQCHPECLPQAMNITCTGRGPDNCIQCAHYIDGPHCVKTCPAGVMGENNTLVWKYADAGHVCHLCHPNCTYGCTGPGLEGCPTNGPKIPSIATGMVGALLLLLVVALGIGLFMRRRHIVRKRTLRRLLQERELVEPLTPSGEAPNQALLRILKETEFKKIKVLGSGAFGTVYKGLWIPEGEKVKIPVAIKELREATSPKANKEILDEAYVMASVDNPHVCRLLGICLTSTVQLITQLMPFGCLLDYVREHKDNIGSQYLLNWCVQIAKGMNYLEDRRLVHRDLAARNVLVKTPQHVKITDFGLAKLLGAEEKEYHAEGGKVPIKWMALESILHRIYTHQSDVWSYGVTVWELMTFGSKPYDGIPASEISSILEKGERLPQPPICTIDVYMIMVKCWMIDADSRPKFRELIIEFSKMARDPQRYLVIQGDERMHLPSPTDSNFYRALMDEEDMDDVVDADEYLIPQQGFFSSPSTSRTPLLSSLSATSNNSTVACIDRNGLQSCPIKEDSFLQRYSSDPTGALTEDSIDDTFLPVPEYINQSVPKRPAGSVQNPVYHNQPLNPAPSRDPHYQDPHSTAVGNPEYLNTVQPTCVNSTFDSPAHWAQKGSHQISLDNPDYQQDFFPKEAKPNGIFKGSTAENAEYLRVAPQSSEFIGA
As to `NC(=O)c1ncn([C@@H]2O[C@H](CO)[C@@H](O)[C@H]2O)n1` [RIBAVIRIN], the IC50 entry is given as “Not Active”.
On the same count and under the same terms, then `Nc1nnc(-c2cccc(Cl)c2Cl)c(N)n1` [LAMOTRIGINE], with “Not Active”.
Same read-out and setting: then `NNC(=O)c1ccncc1` [ISONIAZID], with “Not Active”.

Another assay deals with T4, Cathepsin G (Homo sapiens, UniProt P08311).
T4 sequence (P08311 whole entry): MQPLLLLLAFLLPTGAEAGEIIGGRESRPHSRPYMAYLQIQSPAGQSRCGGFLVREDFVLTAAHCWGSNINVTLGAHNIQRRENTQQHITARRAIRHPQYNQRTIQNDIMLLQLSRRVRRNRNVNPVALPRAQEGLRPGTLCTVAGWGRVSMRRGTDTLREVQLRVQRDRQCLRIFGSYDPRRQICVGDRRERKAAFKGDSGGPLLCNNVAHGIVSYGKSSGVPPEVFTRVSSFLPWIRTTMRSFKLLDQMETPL
Assay: not given
The format is tissue-based. Particulars: neutrophil.
As to `NC(=O)c1ncn([C@@H]2O[C@H](CO)[C@@H](O)[C@H]2O)n1` [RIBAVIRIN], the IC50 result is listed as “Not Active”.
Consider `Nc1nnc(-c2cccc(Cl)c2Cl)c(N)n1` [LAMOTRIGINE], for which the IC50 result is given as “Not Active”.
Take `NNC(=O)c1ccncc1` [ISONIAZID]: the IC50 entry is on record as “Not Active”.

The target of another assay is T5, Calcitonin receptor (Homo sapiens, UniProt P30988). Further: in other assays of this panel Not Active means under 50% inhibition at 10 µM.
T5 sequence (P30988 whole entry): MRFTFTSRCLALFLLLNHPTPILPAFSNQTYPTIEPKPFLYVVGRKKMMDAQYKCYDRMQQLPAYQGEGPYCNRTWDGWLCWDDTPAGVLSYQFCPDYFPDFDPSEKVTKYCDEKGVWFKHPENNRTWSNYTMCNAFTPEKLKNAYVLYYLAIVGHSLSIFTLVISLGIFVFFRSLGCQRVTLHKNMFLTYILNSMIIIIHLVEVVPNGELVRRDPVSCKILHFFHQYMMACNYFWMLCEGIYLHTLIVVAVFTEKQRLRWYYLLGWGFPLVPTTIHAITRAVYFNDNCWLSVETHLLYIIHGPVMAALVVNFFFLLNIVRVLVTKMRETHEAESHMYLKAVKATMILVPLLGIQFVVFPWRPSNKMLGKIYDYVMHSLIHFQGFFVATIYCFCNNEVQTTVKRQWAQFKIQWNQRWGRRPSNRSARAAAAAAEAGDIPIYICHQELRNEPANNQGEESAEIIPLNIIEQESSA
Assay: not given
The format is cell membranes, Membrane. The note with it: t47d.
Regarding `NC(=O)c1ncn([C@@H]2O[C@H](CO)[C@@H](O)[C@H]2O)n1` [RIBAVIRIN], the IC50 entry is on record as “Not Active”.
Same read-out and setting: then `Nc1nnc(-c2cccc(Cl)c2Cl)c(N)n1` [LAMOTRIGINE], with “Not Active”; and `NNC(=O)c1ccncc1` [ISONIAZID], with “Not Active”.
